One may read the melting point as the temperature, or range, at which the solid turns liquid.

Molecules are shown by their SMILES.

One series relates to HIV-1, IIIB strain. The series can be described thus: Inhibition of HIV-1-induced cytopathicity in acutely infected MT-4 cells (MTT method). It counts as cell-based. The conditions noted are these: Human immunodeficiency virus 1, IIIB, MT4, 96 h, 4-day incubation, read-out: 50% effective concentration value (EC50). The procedure: Several of the compounds disclosed herein were tested for their ability to inhibit HIV cell multiplication. The compounds were solubilized in dimethyl sulfoxide at 200 mM and then diluted into culture medium. MT-4, C8166, H9/IIIB cells were grown at 37° C. in a 5% CO2 atmosphere in RPMI 1640 medium, supplemented with 10% fetal calf serum (FCS), 100 IU/mL penicillin G and 100 μg/mL streptomycin. Cell cultures were checked periodically for the absence of mycoplasma contamination with a MycoTect Kit (Gibco). Human immunodeficiency viruses type-1 (HIV-1, IIIB strain) were obtained from supernatants of persistently infected H9/IIIB. HIV-1 stock solutions had titres of 4.5×10^6 50% cell culture infectious dose (CCID50)/mL. Titration of HIV-1 was performed in C8166 cells by the standard limiting dilution method (dilution 1:2, four replica wells/dilution) in 96-well plates. The infectious virus titer was determined by light microscope scoring of cytopathicity after 4 days of incubation and the virus titers were expressed as CCID50/mL.
Activity of the compounds against HIV-1 multiplication in acutely infected cells was based on the inhibition of virus-induced cytopathicity in MT-4 cells. Briefly, 50 μL of culture medium containing 1×10^4 cells were added to each well of flat-bottom microtiter trays containing 50 μL of culture medium with or without various concentrations of the test compounds. Then 20 μL of an HIV-1 suspension containing 100 CCID50 was added. After a 4-day incubation at 37° C., the number of viable cells was determined by the 3-(4,5-dimethylthiazol-[…])-2,5-diphenyltetrazolium bromide (MTT) method (Pauwels, R.; Balzarini, J.; Baba, M.; Snoeck, R.; Schols, D.; Herdewijn, P.; Desmyster, J.; De Clercq, E. J. Virol. Methods 1988, 20, 309-321). Cytotoxicity of the compounds was evaluated in parallel with their antiviral activity, and was based on the viability of mock-infected cells, as monitored by the MTT method.
A general note: Cytopathic effects are the visible damage that an infection or toxin causes in cultured cells.

Regarding `CCOC(=O)C(=O)CC(=O)c1cn(Cc2ccc(F)cc2)c2ccccc2c1=O` [RDS1624, 4-[1-(4-fluorophenyl)methyl-1,4-dihydro-4-oxoquinolin-3-yl]-2,4-dioxobutanoic acid ethyl ester], the EC50 with HIV-1, IIIB strain turned out to be 3.5 µM. Consider `O=C(O)C(=O)CC(=O)c1cn(Cc2ccc(F)cc2)c2ccccc2c1=O` [RDS1625, 4-[1-(4-fluorophenyl)methyl-1,4-dihydro-4-oxoquinolin-3-yl]-2,4-dioxobutanoic acid], for which the melting point is 207 to 209 °C. Besides, in the series with HIV-1, IIIB strain, the EC50 turned out to be 40 µM.

`O=C(O)C(=O)CC(=O)c1cn(Cc2ccc(F)cc2)c2ccc(F)cc2c1=O` [RDS2078, 4-[1-(4-Fluorophenyl)methyl-6-fluoro-1,4-dihydro-4-oxoquinolin-3-yl]-2,4-dioxobutanoic acid] returned a melting point of 183 to 184 °C. `CCOC(=O)C(=O)CC(=O)c1cn(Cc2ccc3ccccc3n2)c2ccccc2c1=O` [RDS1999, 4-[1-(2-Quinolinyl)methyl-1,4-dihydro-4-oxoquinolin-3-yl]-2,4-dioxobutanoic acid ethyl ester] had a melting point of 237 to 238 °C. On to `CCOC(=O)C(=O)CC(=O)c1cn(Cc2ccc(Cl)cc2)c2ccccc2c1=O` [RDS2011, 4-[1-(4-Chlorophenyl)methyl-1,4-dihydro-4-oxoquinolin-3-yl]-2,4-dioxobutanoic acid ethyl ester], for which the melting point was in the range of 174 to 176 °C. Same read-out and setting: with `O=C(O)C(=O)CC(=O)c1cn(Cc2ccc(Cl)cc2)c2ccccc2c1=O` [RDS2012, 4-[1-(4-Chlorophenyl)methyl-1,4-dihydro-4-oxoquinolin-3-yl]-2,4-dioxobutanoic acid] the figure was 177 to 179 °C; with `CCOC(=O)C(=O)CC(=O)c1cn(Cc2ccccc2OC)c2ccccc2c1=O`, 154 to 156 °C; with `CCOC(=O)C(=O)CC(=O)c1cn(Cc2ccc(F)cc2)c2cc(Cl)c(Cl)cc2c1=O`, 144 to 145 °C. On the same count and under the same terms, for `CCOC(=O)C(=O)CC(=O)c1cn(CCCCc2ccccc2)c2ccccc2c1=O` [RDS1980, 4-[1-(4-Phenylbutyl)-1,4-dihydro-4-oxoquinolin-3-yl]-2,4-dioxobutanoic acid ethyl ester] the value was 88 to 90 °C. `CCOC(=O)C(=O)CC(=O)c1cn(Cc2ccc(F)cc2)c2ccc(Cl)cc2c1=O` [RDS1755]: the EC50 in the series with HIV-1, IIIB strain came out at 5 µM. Regarding `COc1cccc(Cn2cc(C(=O)CC(=O)C(=O)O)c(=O)c3ccccc32)c1`, the melting point fell in the range of 179 to 181 °C.

As to `O=C(O)CCc1cn(Cc2ccc(F)cc2)c2ccc(C(=O)CC(=O)C(=O)O)cc2c1=O`, the melting point was 184 to 187 °C. `O=C(O)C(=O)CC(=O)c1cn(Cc2ccc(F)cc2)c2cc(N3CCCC3)ccc2c1=O`: the melting point lay within 197 to 199 °C.

The values above are taken from patent publication US7776883B2, “Quinolin-4-ones as inhibitors of retroviral integrase for the treatment of HIV, AIDS and AIDS related complex (ARC)” (The United States of America as represented by the …, priority 2004, dated 2010).
